Converted amounts (≈) assume the structure as drawn.
Legend:
Chlamydia pneumoniae [1] = experiment: Chlamydia pneumoniae infection of HEp-G2 cells, Protocol 2 (compound added 15 h after challenge); type: cell-based; details: for MIC: Chlamydia pneumoniae, Protocol 2, compound added 15 h after challenge of HEp-G2 cells
Experimental: (§1) Protocol 1 was performed in 96-well flat-bottom microtiter plates. Each well contained 100 μL of 10^6 HEp-G2 cells/ml in standard medium that had been incubated for 24 h at 37° C. in 5% CO2. Compound stocks were prepared in dimethylsulfoxide, diluted in two-fold serial dilutions, and added to each well as 10 μL aliquots. Each compound concentration was assayed in triplicate. Elementary bodies (chlamydial stock) were diluted to contain 2×10^4inclusion-forming units (ifu) per milliliter and 90 μL was added to each well. Infection was allowed to proceed for 72 h at 37° C. in 5% CO2, after which the cells were fixed and stained with genus-reactive anti-LPS antibody. The use of a fluorescein (FITC)-conjugated secondary antibody allowed the number of inclusion-containing cells to be identified via inverted fluorescent microscopy. The minimum inhibitory concentration (MIC) was defined as the lowest concentration of compound that inhibited the formation of inclusions. The minimal bactericidal concentration (MBC) was defined as the lowest concentration of compound that prevented the formation of inclusions after the compound had been removed by the addition of fresh medium and the cultures had been incubated for a further 48 h. Procedures for growth and preparation of C. pneumoniae and HEp-G2 cells are described in Kalayoglu, M. V., et al., J. Infect. Dis., 1999, 180:780-790. Methodology for detecting inclusions using an direct fluorescent antibody technique is found in Byrne, G. I., et al. J. Infect. Dis., 1993, 168:415-420.
Protocol 2 was nearly identical to protocol 1 except that compound was added 15 h after challenge of HEp-G2 cells with C. pneumoniae. This protocol helps distinguish compounds that interfere with latter stages of C. pneumoniae growth and replication.

C. pneumoniae = C. pneumoniae protocol that treats HEp-G2 cells with cycloheximide; type: cell-based, Chlamydia pneumoniae; details: cycloheximide 1 μg/mL
Chlamydia pneumoniae [2] = experiment: Chlamydia pneumoniae infection of HEp-G2 cells, Protocol 1; type: cell-based; details: for MIC / MBC: Chlamydia pneumoniae, Protocol 1; for MIC: HEp-G2 cells, 72 h infection, lowest concentration that inhibited the formation of inclusions; for MBC: no inclusions after compound removed and further 48 h incubation; for activity against growth of C. pneumoniae in HEp-2 cells: as shown in Table 2
Experimental: as §1

Compound | MIC (Chlamydia pneumoniae [1]) | interfering with the latter stage of pneumoniae growth and replication (Chlamydia pneumoniae [1]; comparison of compound 1 with compound 2) | MICs in a protocol that treats HEp-G2 cells with cycloheximide (C. pneumoniae) | MIC (Chlamydia pneumoniae [2]) | MBC (Chlamydia pneumoniae [2]) | activity against growth of C. pneumoniae in HEp-2 cells (Chlamydia pneumoniae [2])
O=C(N[C@@H](Cc1ccc(F)cc1)C(=O)N1CCC(O)CC1)c1cc2cc(Cl)ccc2[nH]1 [Compound 1] | 12.5 µg/mL (≈ 28.2 µM) | superior to compound 2 | did not differ | 12.5 µg/mL (≈ 28.2 µM) | 25 µg/mL (≈ 56.3 µM) | exhibited activity
O=C(N[C@@H](Cc1ccccc1)C(=O)N1CC(O)C1)c1cc2cc(Cl)ccc2[nH]1 [Compound 2] | 50 µg/mL (≈ 126 µM) | – | did not differ | 25 µg/mL (≈ 62.8 µM) | 25 µg/mL (≈ 62.8 µM) | exhibited activity

Source: patent US6555569B2, “Use of heteroaryl substituted N-(indole-2-carbonyl-) amides for treatment of infection” (Pfizer Inc., priority 2000, dated 2003)
